We go through one molecule from US5506217A, “Phosphonates as anti-cancer agents” (The University of British Columbia, priority 1994, dated 1996).

Assay [1] deals with human colorectal cell line (HT-29). The experiment in a line: HT-29 tumor growth in nude mice. The class given is in vivo. The note with it: orally once a day, 5 mg/Kg body weight; HT-29 subcutaneous in nude mice. The method, then: Studies were also performed with nude mice injected with the human colorectal cell line (HT-29) subcutaneously.
Assay [2] relates to LLC tumor cells (Lewis Lung carcinoma). Put plainly: colonogenic cell survival assay. In kind it is cell-based. The settings on record: Mus musculus, 120 h, read-out: Colonies formed after 5 days (% of control). The method, then:
Inhibition of colony formation in soft agar medium (colonogenic cell survival assay) is a more rigorous and direct measurement of cell kill or growth inhibition, and reflects the anti-cancer activity of the test compound. Briefly, tumor cells were cultured in petri dishes in methylcellulose, with or without a phosphonate test compound, and the number of colonies formed during a 5-day incubation period were counted.
Lewis Lung carcinoma (LLC), a cancer cell linc derived from […] of mice, was evaluated for its sensitivity to the cytotoxic activity of phosphonates of the following structure using the colonogenic cell survival assay (described above): [drawing 19]

Assay [3] deals with L1210 (B-cell lymphoma) cells. The experiment in a line: survival of CD1 mice injected with L1210 lymphoma cells. The class given is in vivo. The settings on record: 10 mg/kg per day IM. The method, then: The effects of phosphonates in a mouse model of lymphoma were also studied. Mice (CD 1) were injected with 1×10^6 L1210 (B-cell lymphoma) cells intraperitoneally. In one group the mice received the phosphonate compound of the following formula at 10 mg/kg per day intramuscularly, while a second group of mice received no treatment: [drawing 18]

The test system of assay [4] is 2008 (human ovarian cancer). Put plainly: cytotoxicity IC50 (3H-thymidine uptake, colonogenic cell survival and MTT assays). The class given is cell-based. An excerpt:
(§1) A combination of ^3 H-Thymidine incorporation assay, colonogenic cell survival assay and MTT assay was used to determine cytotoxicity data of phosphonates in several mouse and human tumor cell lines.

The subject of assay [5] is LLC (mouse Lewis lung carcinoma). Described as above. The class given is cell-based.
From the text: as §1

Consider `CCCCCCCCCCCCCCCCOCC(CCP(=O)([O-])OCC[N+](C)(C)C)OC` (stereo not drawn) [compound VIII], for which, in assay [1], the “retardation of tumor growth” value is 30-40%. Further, in assay [2] (1.25 μM), the activity at 1.25 µM was 97 ± 9%. Besides, in assay [2] (2.5 μM), the activity at 2.5 µM stood at 81 ± 6%. Besides, in assay [2] (5 μM), the activity at 5 µM turned out to be 67 ± 5%. The activity at 10 µM in assay [2] (10 μM) stood at 53 ± 4%. Also, the activity at 20 µM in assay [2] (20 μM) turned out to be 37 ± 5%. Besides, in assay [2] (40 μM), the activity at 40 µM stood at 19 ± 6%. The “% Survival” value in assay [3] (day 0 after injection of L1210 cells), in assay [3] (day 7 after injection of L1210 cells), in assay [3] (day 8 after injection of L1210 cells), in assay [3] (day 19 after injection of L1210 cells) and in assay [3] (day 21 after injection of L1210 cells) was 100% each time. Besides, the “deaths among treated animals (in words)” value in assay [3] (up to 21 days of observation) is “None of the phosphonate-treated (compound VIII) animals died”. Moreover, the IC50 turned out to be 27.8 µM in assay [4] and 10.6 µM in assay [5].
